This is an account of results in patent US8399419B2, “Antibacterial aminoglycoside analogs” (Achaogen, Inc., priority 2008, dated 2013).

One assay relates to E. coli ATCC 25922. Nature of the assay: MIC assay (CLSI broth microdilution), AECO001. Type of assay: cell-based. The conditions noted are these: AECO001 is ATCC25922 (E. coli), Mueller Hinton Broth, 35 C, 20 hours; for MIC: Escherichia coli. The protocol:
(§1) Minimum inhibitory concentrations (MIC) were determined by reference Clinical and Laboratory Standards Institute (CLSI) broth microdilution methods per M7-A7 [2006]. Quality control ranges utilizing E. coli ATCC 25922, P. aeruginosa ATCC 27853 and S. aureus ATCC 29213, and interpretive criteria for comparator agents were as published in CLSI M100-S17 [2007]. Briefly, serial two-fold dilutions of the test compounds were prepared at 2× concentration in Mueller Hinton Broth. The compound dilutions were mixed in 96-well assay plates in a 1:1 ratio with bacterial inoculum. The inoculum was prepared by suspension of a colony from an agar plate that was prepared the previous day. Bacteria were suspended in sterile saline and added to each assay plate to obtain a final concentration of 5×10^5 CFU/mL. The plates were incubated at 35 C for 20 hours in ambient air.
Background: Broth dilution looks for growth in wells or tubes with falling amounts of substance.

A further assay has as its system P. aeruginosa ATCC 27853. The assay is described as follows: MIC assay (CLSI broth microdilution), APAE001. Type of assay: cell-based. The conditions noted are these: APAE001 is ATCC27853 (P. aeruginosa), Mueller Hinton Broth, 35 C, 20 hours; for MIC: Pseudomonas aeruginosa. The protocol: as §1

Converted amounts (≈) assume the structure as drawn.

“3′,4′,3′″,4′″-tetra-deoxy-1-(3-amino-propionyl)-neomycin [Example 14/Compound 4]”: the “MIC AECO001” value against E. coli ATCC 25922 is recorded as “B (MIC's of greater than 1.0 μg/mL to 16.0 μg/mL = B)”. In addition, in the assay on P. aeruginosa ATCC 27853, the “MIC APAE001” value is recorded as “B (MIC's of greater than 1.0 μg/mL to 16.0 μg/mL = B)”.
A word on the MIC: it is the smallest concentration in the dilution series that meets the test's criterion for growth inhibition. Higher therefore signals weaker potency. Take `NCC[C@H](O)C(=O)N[C@@H]1C[C@H](N)[C@@H](O[C@H]2O[C@H](CO)CC[C@H]2N)[C@H](O[C@@H]2O[C@H](CO)[C@@H](O[C@H]3O[C@@H](CN)CC[C@H]3N)[C@H]2O)[C@H]1O` [Example 1/Compound 16, 3′,4′,3′″,4′″-tetradeoxy-1-(4-amino-2(S)-hydroxy-butyryl)-paromomycin]: the results for the MIC in the assay with E. coli ATCC 25922 and in the assay on P. aeruginosa ATCC 27853 were 1 to 16 µg/mL (≈ 1.53 to 24.5 µM) and over 16 µg/mL, respectively.
Take `NC[C@H]1CC[C@@H](N)[C@@H](O[C@H]2[C@@H](O)[C@H](O[C@@H]3[C@@H](O)[C@H](N)C[C@H](N)[C@H]3O[C@H]3O[C@H](CO)CC[C@H]3N)O[C@@H]2CO)O1` [Example 2/Compound 8]: the minimal inhibitory concentration (MIC) against E. coli ATCC 25922 is 1 to 16 µg/mL (≈ 1.81 to 29 µM); in the assay on P. aeruginosa ATCC 27853, over 16 µg/mL.
`NC[C@@H]1CC[C@@H](N)[C@@H](O[C@H]2[C@H](O[C@@H]3O[C@H](CO)[C@@H](O[C@H]4O[C@@H](CN)CC[C@H]4N)[C@H]3O)[C@@H](O)[C@H](N)C[C@@H]2N)O1` [Example 3/Compound 6, 3′,4′,3′″,4′″-tetra-deoxy-neomycin]: the minimum inhibitory concentration (MIC) in the assay on E. coli ATCC 25922 and in the assay with P. aeruginosa ATCC 27853 was at most 1 µg/mL throughout.
`NCC[C@H](O)C(=O)N[C@@H]1C[C@H](N)[C@@H](O[C@H]2O[C@H](CN)CC[C@H]2N)[C@H](O[C@@H]2O[C@H](CO)[C@@H](O[C@H]3O[C@@H](CN)CC[C@H]3N)[C@H]2O)[C@H]1O` [Example 4/Compound 5, 3′,4′,3′″,4′″-tetra-dehydro-1-(4-amino-2(S)-hydroxy-butyryl)-neomycin]: the MIC in the assay on E. coli ATCC 25922 was 1 to 16 µg/mL (≈ 1.53 to 24.5 µM); in the assay on P. aeruginosa ATCC 27853, at most 1 µg/mL.
The matching figures for `NCC[C@H](O)C(=O)N[C@@H]1C[C@H](N)[C@@H](O[C@H]2O[C@H](CN)C=C[C@H]2N)[C@H](O[C@@H]2O[C@H](CO)[C@@H](O[C@H]3O[C@@H](CN)C=C[C@H]3N)[C@H]2O)[C@H]1O` [Example 5/Compound 7]: 1 to 16 µg/mL (≈ 1.54 to 24.7 µM) and at most 1 µg/mL.
The corresponding values for `NCC[C@H](O)C(=O)N[C@@H]1C[C@H](N)[C@@H](O[C@H]2O[C@H](CN)CC[C@H]2N)[C@H](O[C@@H]2O[C@H](CO)[C@@H](O[C@H]3O[C@H](CN)CC[C@H]3N)[C@H]2O)[C@H]1O` [Example 6/Compound 9] are 1 to 16 µg/mL (≈ 1.53 to 24.5 µM) and 1 to 16 µg/mL (≈ 1.53 to 24.5 µM).
As for `NCCCS(=O)(=O)N[C@@H]1C[C@H](N)[C@@H](O[C@H]2O[C@H](CN)CC[C@H]2N)[C@H](O[C@@H]2O[C@H](CO)[C@@H](O[C@H]3O[C@@H](CN)CC[C@H]3N)[C@H]2O)[C@H]1O` [Example 7/Compound 4], the minimal inhibitory concentration (MIC) was 1 to 16 µg/mL (≈ 1.49 to 23.8 µM) against E. coli ATCC 25922 and at most 1 µg/mL with P. aeruginosa ATCC 27853.
The corresponding values for `CC(=O)N[C@@H]1C[C@H](N)[C@@H](O[C@H]2O[C@H](CN)CC[C@H]2N)[C@H](O[C@@H]2O[C@H](CO)[C@@H](O[C@H]3O[C@@H](CN)CC[C@H]3N)[C@H]2O)[C@H]1O` [Example 8/Compound 3] are 1 to 16 µg/mL (≈ 1.69 to 27 µM) and 1 to 16 µg/mL (≈ 1.69 to 27 µM).
The corresponding values for `NC[C@@H]1CC[C@@H](N)[C@@H](O[C@H]2[C@H](O[C@@H]3O[C@H](CO)[C@@H](O[C@H]4O[C@@H](CN)CC[C@H]4N)[C@H]3O)[C@@H](O)[C@H](NC(=O)C3(O)CC(N)C3)C[C@@H]2N)O1` (some centres unmarked) [Example 9/Compound 4] are at most 1 µg/mL and at most 1 µg/mL.
The matching figures for `NC[C@@H]1CC[C@@H](N)[C@@H](O[C@H]2[C@H](O[C@@H]3O[C@H](CO)[C@@H](O[C@H]4O[C@@H](CN)CC[C@H]4N)[C@H]3O)[C@@H](O)[C@H](NC(=O)C3(O)CNC3)C[C@@H]2N)O1` [Example 10/Compound 4]: at most 1 µg/mL and at most 1 µg/mL.
In the case of `NC[C@@H]1CC[C@@H](N)[C@@H](O[C@H]2[C@H](O[C@@H]3O[C@H](CO)[C@@H](O[C@H]4O[C@@H](CN)CC[C@H]4N)[C@H]3O)[C@@H](O)[C@H](NCCC(N)=O)C[C@@H]2N)O1` [Example 11/Compound 3, 3′,4′,3′″,4′″-tetra-deoxy-1-(3-propionamide)-neomycin], the minimum inhibitory concentration (MIC) with E. coli ATCC 25922 and with P. aeruginosa ATCC 27853 was 1 to 16 µg/mL (≈ 1.61 to 25.7 µM) throughout.
For the compound `NCC(O)CN[C@@H]1C[C@H](N)[C@@H](O[C@H]2O[C@H](CN)CC[C@H]2N)[C@H](O[C@@H]2O[C@H](CO)[C@@H](O[C@H]3O[C@@H](CN)CC[C@H]3N)[C@H]2O)[C@H]1O` (some centres unmarked) [Example 12/Compound 3, 3′,4′,3′″,4′″-tetra-deoxy-1-(2-hydroxy-3-amino-propyl)-neomycin], the MIC in the assay with E. coli ATCC 25922 was 1 to 16 µg/mL (≈ 1.6 to 25.7 µM); with P. aeruginosa ATCC 27853 it was at most 1 µg/mL.
Regarding `NC[C@@H]1CC[C@@H](N)[C@@H](O[C@H]2[C@H](O[C@@H]3O[C@H](CO)[C@@H](O[C@H]4O[C@@H](CN)CC[C@H]4N)[C@H]3O)[C@@H](O)[C@H](NC(=O)[C@@H](O)CN)C[C@@H]2N)O1` [Example 13/Compound 4, 3′,4′,3′″,4′″-tetra-deoxy-1-(2(S)-hydroxy-3-amino-propionyl)-neomycin], the minimal inhibitory concentration (MIC) with E. coli ATCC 25922 is 1 to 16 µg/mL (≈ 1.57 to 25.1 µM); with P. aeruginosa ATCC 27853 it was at most 1 µg/mL.
The corresponding values for `N#CCCC(=O)N[C@@H]1C[C@H](N)[C@@H](O[C@H]2O[C@H](CN)CC[C@H]2N)[C@H](O[C@@H]2O[C@H](CO)[C@@H](O[C@H]3O[C@@H](CN)CC[C@H]3N)[C@H]2O)[C@H]1O` [Example 14/Compound 3, 3′,4′,3′″,4′″-tetra-deoxy-1-(3-cyano-propionyl)-neomycin] are 1 to 16 µg/mL (≈ 1.58 to 25.3 µM) and over 16 µg/mL.
The corresponding values for `NC[C@@H]1CC[C@@H](N)[C@@H](O[C@H]2[C@H](O[C@@H]3O[C@H](CO)[C@@H](O[C@H]4O[C@@H](CN)CC[C@H]4N)[C@H]3O)[C@@H](O)[C@H](NCCO)C[C@@H]2N)O1` [Example 15/Compound 3, 3′,4′,3′″,4′″-tetra-deoxy-1-(2-hydroxyethyl)-neomycin] are 1 to 16 µg/mL (≈ 1.68 to 26.9 µM) and 1 to 16 µg/mL (≈ 1.68 to 26.9 µM).
The corresponding values for `NC[C@@H]1CC[C@@H](N)[C@@H](O[C@H]2[C@H](O[C@@H]3O[C@H](CO)[C@@H](O[C@H]4O[C@@H](CN)CC[C@H]4N)[C@H]3O)[C@@H](O)[C@H](NCc3cccc(O)c3)C[C@@H]2N)O1` [Example 16/Compound 3, 3′,4′,3′″,4′″-tetra-deoxy-1-(3-hydroxybenzyl)-neomycin] are 1 to 16 µg/mL (≈ 1.52 to 24.4 µM) and 1 to 16 µg/mL (≈ 1.52 to 24.4 µM).
With `N=C(N)NCC[C@H](O)C(=O)N[C@@H]1C[C@H](N)[C@@H](O[C@H]2O[C@H](CN)CC[C@H]2N)[C@H](O[C@@H]2O[C@H](CO)[C@@H](O[C@H]3O[C@@H](CN)CC[C@H]3N)[C@H]2O)[C@H]1O` [Example 17/Compound 4, 3′,4′,3′″,4′″-tetra-deoxy-1-(2(S)-hydroxy-4-guanidino-butyryl)-neomycin], the MIC was 1 to 16 µg/mL (≈ 1.44 to 23.1 µM) against E. coli ATCC 25922 and at most 1 µg/mL in the assay with P. aeruginosa ATCC 27853.
The corresponding values for `NC[C@@H]1CC[C@@H](N)[C@@H](O[C@H]2[C@H](O[C@@H]3O[C@H](CO)[C@@H](O[C@H]4O[C@@H](CN)CC[C@H]4N)[C@H]3O)[C@@H](O)[C@H](NCC(O)CO)C[C@@H]2N)O1` (some centres unmarked) [Example 18/Compound 3, 3′,4′,3′″,4′″-tetra-deoxy-1-(2,3-bis-hydroxy-propyl)-neomycin] are 1 to 16 µg/mL (≈ 1.6 to 25.6 µM) and at most 1 µg/mL.
The corresponding values for `NCC(=O)N[C@@H]1C[C@H](N)[C@@H](O[C@H]2O[C@H](CN)CC[C@H]2N)[C@H](O[C@@H]2O[C@H](CO)[C@@H](O[C@H]3O[C@@H](CN)CC[C@H]3N)[C@H]2O)[C@H]1O` [Example 19/Compound 3, 3′,4′,3′″,4′″-tetra-deoxy-1-(2-aminoacetyl)-neomycin] are 1 to 16 µg/mL (≈ 1.65 to 26.3 µM) and 1 to 16 µg/mL (≈ 1.65 to 26.3 µM).
The corresponding values for `NC[C@@H]1CC[C@@H](N)[C@@H](O[C@H]2[C@H](O[C@@H]3O[C@H](CO)[C@@H](O[C@H]4O[C@@H](CN)CC[C@H]4N)[C@H]3O)[C@@H](O)[C@H](NC(=O)[C@@H](N)CO)C[C@@H]2N)O1` [Example 20/Compound 3, 3′,4′,3′″,4′″-tetra-deoxy-1-(2(S)-amino-3-hydroxy-propionyl)-neomycin] are 1 to 16 µg/mL (≈ 1.57 to 25.1 µM) and 1 to 16 µg/mL (≈ 1.57 to 25.1 µM).
Turning to `NC[C@@H]1CC[C@@H](N)[C@@H](O[C@H]2[C@H](O[C@@H]3O[C@H](CO)[C@@H](O[C@H]4O[C@@H](CN)CC[C@H]4N)[C@H]3O)[C@@H](O)[C@H](NC(CO)CO)C[C@@H]2N)O1` [Example 21/Compound 3, 3′,4′,3′″,4′″-tetra-deoxy-1-(2-hydroxy-1-hydroxymethyl-ethyl)-neomycin], the MIC in the assay with E. coli ATCC 25922 and with P. aeruginosa ATCC 27853 was 1 to 16 µg/mL (≈ 1.6 to 25.6 µM) in each case.
Consider `NCCN(O)C(=O)N[C@@H]1C[C@H](N)[C@@H](O[C@H]2O[C@H](CN)CC[C@H]2N)[C@H](O[C@@H]2O[C@H](CO)[C@@H](O[C@H]3O[C@@H](CN)CC[C@H]3N)[C@H]2O)[C@H]1O` [Example 22/Compound 6], for which the MIC against E. coli ATCC 25922 and in the assay on P. aeruginosa ATCC 27853 was at most 1 µg/mL in each case.
Consider `NCCS(=O)(=O)N[C@@H]1C[C@H](N)[C@@H](O[C@H]2O[C@H](CN)CC[C@H]2N)[C@H](O[C@@H]2O[C@H](CO)[C@@H](O[C@H]3O[C@@H](CN)CC[C@H]3N)[C@H]2O)[C@H]1O` [Example 23/Compound 4, 3′,4′,3′″,4′″-tetra-deoxy-1-(2-amino-ethylsulfonamide)-neomycin], for which, in the assay on E. coli ATCC 25922, the MIC is 1 to 16 µg/mL (≈ 1.52 to 24.3 µM).
